{"source": "ChEMBL document CHEMBL1157539", "about": "“Thousands of chemical starting points for antimalarial lead identification” (Nature, 2010)"}
{"tested_on": "Plasmodium falciparum", "assay": "GSK_TCMDC: Inhibition of Plasmodium falciparum 3D7 in whole erythrocytes, using parasite LDH activity as an index of growth.", "format": "functional, organism-based", "conditions": "Plasmodium falciparum, 3D7", "units": {"XC50": "nM"}}
{"smiles": "O=C(Nc1cc(Cl)cc(Cl)c1)Nc1ccnc2ccccc12", "XC50": 745}
{"smiles": "CN(C)c1ccc(OCCCCCCOc2ccccc2)cc1", "XC50": 496}
{"smiles": "NOCCCOc1ccc(Cl)cc1", "XC50": 574}
{"smiles": "O=C(Nc1ccccc1)N(Cc1cccc(-c2cccc(CNCCc3ccccc3)c2)c1)C1CCN(Cc2ccccc2)CC1", "XC50": 307}
{"smiles": "Nn1c(=O)oc2ccc(Cl)cc2c1=O", "XC50": 187}
{"smiles": "Cc1ncsc1CCN1C(=O)CC2(C1=O)C(=O)N(Cc1ccccc1)c1ccc(Cl)cc12", "note": "(stereo not given)", "XC50": 984}
{"smiles": "Cc1cccc2[nH]c(-c3cc(-c4cccc(Cl)c4)cnc3N)nc12", "XC50": 124}
{"smiles": "c1ccc2c(c1)CN(Cc1ccsc1)CC1(CCN(Cc3c[nH]c4cnccc34)CC1)O2", "XC50": 1150}
{"smiles": "CCNc1cc(C(=O)NC(Cc2ccccc2)C(O)CNC2CCSCC2)cc(N2CCCC2=O)c1", "note": "(stereo not given)", "XC50": 133}
{"smiles": "CCCCc1cc(NCc2ccncc2)nc(Nc2ccc(C)cc2)n1", "XC50": 794}
{"smiles": "COc1cc(Nc2nccc(N3CCC(NC(=O)c4cccc(C#N)c4)C3)n2)cc(OC)c1OC", "note": "(stereo not given)", "XC50": 992}
{"smiles": "CC(C)CNCc1ccc(-c2ccccc2CN(C(=O)NCCc2ccccc2)C2CCN(Cc3ccccc3)CC2)cc1", "XC50": 878}
{"smiles": "O=C(Cc1cccc(Cl)c1)Nc1ccc(N2CCC(NCc3ccc4ncccc4c3)CC2)cc1", "XC50": 1230}
{"smiles": "O=C(/C=C/c1ccc(Cl)c(Cl)c1)NC1CCC(CN2CCC(c3c[nH]c4cc(O)ccc34)CC2)CC1", "note": "(stereo not given)", "XC50": 813}
{"smiles": "NC1=NC2(CCCCC2)N(Cc2ccc(Cl)c(Cl)c2)C(N)=N1", "XC50": 623}
{"smiles": "CCN(CCCN1CCCCC1)c1cc(C)nc(Nc2ccc(OC)cc2)n1", "XC50": 621}
{"smiles": "CCCCCCCC1CCN(C[C@H](O)c2ccnc3ccc(OC)cc23)CC1", "XC50": 956}
{"smiles": "CC(C)(C)c1nn(-c2ccc(Cl)cc2)c2[nH]c(=O)c(CNCc3ccc4c(c3)OCO4)cc12", "XC50": 810}
{"smiles": "Cc1cccc2nc(-c3cccc(-c4ccc(NC(=O)Cc5ccccn5)cc4)c3)[nH]c12", "XC50": 793}
{"smiles": "COCCn1c(Sc2ccc(C#N)c([N+](=O)[O-])c2)nnc1-c1ccc(N(C)C)cc1", "XC50": 1030}
{"smiles": "O=C(/C=C/c1ccc2ccccc2c1)NC1CCC(CN2CCC(c3c[nH]c4ccccc34)CC2)CC1", "note": "(stereo not given)", "XC50": 727}
{"smiles": "O=C(NCc1ccc(F)cc1)Nc1ccc(-c2cccc(-c3nc4cc(F)ccc4[nH]3)c2)cc1", "XC50": 1120}
{"smiles": "Cc1cccc2nc(-c3ccc(-c4ccc(CN5CCN(CCO)CC5)cc4)cc3)[nH]c12", "XC50": 599}
{"smiles": "CCOC(=O)c1cc(Cl)cc(Cl)c1OCCCON1C(=N)N=C(N)NC1(C)C", "XC50": 3.2}
{"smiles": "COc1cccc(-c2cc3nc4c(c(NCCCn5ccnc5)n3n2)CCCC4)c1", "XC50": 681}
{"smiles": "Cc1ccc(Cl)cc1N1CCN(CCCNC(=O)C2CCN(c3nc4ccccc4[nH]3)CC2)CC1", "XC50": 895}
{"smiles": "CCc1ccc(S(=O)(=O)Nc2cccc(CCN3CCC(N4CCCCC4)CC3)c2)cc1", "XC50": 898}
{"smiles": "CN(C)CCOc1cc(O)c2c(c1)OC(C)(C)C=C2c1cccs1", "XC50": 290}
{"smiles": "OC1(c2ccccc2)CCN(Cc2cccc(-c3c[nH]c4nc(NC5CCCC5)ncc34)c2)C1", "note": "(stereo not given)", "XC50": 914}
{"smiles": "O=C(Nc1ccc(Cl)c(Cl)c1)Nc1ccc2c(c1)CCNCC2", "XC50": 532}
{"smiles": "CC(C)Nc1cc(C(=O)N[C@@H](Cc2ccccc2)[C@H](O)CNC(C)(C)c2cccc(C(F)(F)F)c2)cc(N2CCCCS2(=O)=O)c1", "XC50": 79.4}
{"smiles": "Cc1cccc2nc(-c3ccc(-c4ccc(CN5CCCCC5CO)cc4)cc3)[nH]c12", "note": "(stereo not given)", "XC50": 808}
{"smiles": "O=C(Nc1ccc(N2CCN(c3ncccc3C(F)(F)F)CC2)nc1)c1cccs1", "XC50": 1190}
{"smiles": "CCOC(=O)c1ccc(NC(=O)Nc2ccc(Cn3ncc(N4CCCNCC4)c(Cl)c3=O)cc2)cc1", "XC50": 443}
{"smiles": "CC(O)C1CCCCN1C(=O)c1cccc(-c2cccc(-c3nc4ccccc4[nH]3)c2)c1", "note": "(stereo not given)", "XC50": 534}
{"smiles": "COc1ccc2nccc([C@@H](O)CN3CCC(NCc4nc5c(C#N)cccc5[nH]4)CC3)c2c1", "XC50": 999}
{"smiles": "COc1cc(F)c2ncc(Cl)c([C@H](O)CN3CCC(NCc4cc5c(cn4)OCCO5)CC3)c2c1", "XC50": 95.2}
{"smiles": "CC(C)c1ccc2oc(-c3ccc(NC(=O)c4ccc([N+](=O)[O-])o4)cc3)nc2c1", "XC50": 340}
{"smiles": "NC(=O)c1ccsc1NC(=O)CNC(c1ccccc1)c1ccc(Cl)cc1", "note": "(stereo not given)", "XC50": 262}
{"smiles": "CCc1c(CCNCCCCCCNCCc2ccccc2)ccc(OC)c1OC", "XC50": 800}
